We go through 13 compounds from US11292796B2 (SIGNAL PHARMACEUTICALS, LLC, priority 2008, dated 2022).

The assay concerns the target T1, mTOR (Homo sapiens, UniProt P42345).
T1 construct: purchased Invitrogen PR8683A
The assay is described as follows: mTOR HTR-FRET assay. Type of assay: biochemical. The settings on record: read-out: Act. Level (IC50 in mTor HTR-FRET assay). Put shortly: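 Test compounds, taken from 10 mM DMSO stocks and diluted, were mixed with mTOR enzyme (0.200 μg/mL) in Tris buffer pH 7.4 with 100 mM NaCl, 0.1% Tween-20 and 1 mM DTT. ATP/substrate addition initiated the reaction, alongside compound-free controls.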

Each structure is given as a SMILES string. pIC50: −log10 of the molar value.

T1 sequence (P42345 1360-2549 limits assumed): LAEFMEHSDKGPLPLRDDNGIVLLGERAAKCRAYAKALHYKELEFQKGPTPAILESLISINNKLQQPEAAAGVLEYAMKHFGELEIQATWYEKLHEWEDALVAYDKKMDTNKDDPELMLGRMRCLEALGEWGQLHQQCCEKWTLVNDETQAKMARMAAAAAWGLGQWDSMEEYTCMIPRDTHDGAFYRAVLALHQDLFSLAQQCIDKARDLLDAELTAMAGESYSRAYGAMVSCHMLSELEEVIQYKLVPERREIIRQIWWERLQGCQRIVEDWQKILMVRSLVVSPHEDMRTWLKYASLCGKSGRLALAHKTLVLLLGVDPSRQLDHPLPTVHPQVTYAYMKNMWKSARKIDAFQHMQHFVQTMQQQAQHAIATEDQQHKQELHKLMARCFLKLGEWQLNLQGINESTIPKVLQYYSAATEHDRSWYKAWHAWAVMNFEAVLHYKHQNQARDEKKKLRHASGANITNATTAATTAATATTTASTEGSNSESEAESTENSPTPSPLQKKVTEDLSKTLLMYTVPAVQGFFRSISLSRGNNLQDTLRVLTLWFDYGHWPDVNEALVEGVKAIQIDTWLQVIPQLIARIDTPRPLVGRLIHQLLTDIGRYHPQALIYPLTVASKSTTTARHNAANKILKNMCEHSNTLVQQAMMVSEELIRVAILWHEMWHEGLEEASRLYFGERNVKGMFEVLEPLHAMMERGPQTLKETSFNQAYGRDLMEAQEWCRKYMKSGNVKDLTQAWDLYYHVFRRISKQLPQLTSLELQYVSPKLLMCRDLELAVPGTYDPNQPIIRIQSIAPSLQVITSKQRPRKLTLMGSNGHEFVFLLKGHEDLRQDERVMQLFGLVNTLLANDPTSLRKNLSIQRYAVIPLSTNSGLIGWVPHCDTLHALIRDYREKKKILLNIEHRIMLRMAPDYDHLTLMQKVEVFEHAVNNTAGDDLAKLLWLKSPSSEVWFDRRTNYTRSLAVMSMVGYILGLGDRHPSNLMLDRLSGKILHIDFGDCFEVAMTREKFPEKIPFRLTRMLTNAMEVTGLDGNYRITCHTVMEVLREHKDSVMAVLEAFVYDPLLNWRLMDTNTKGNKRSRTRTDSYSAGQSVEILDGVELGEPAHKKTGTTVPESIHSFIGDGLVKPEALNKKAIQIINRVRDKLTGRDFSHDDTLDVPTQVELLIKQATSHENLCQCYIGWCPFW

In general, pIC50 refers to the IC50 on a negative log10 scale, so that one unit is a factor of ten. In the case of `COCCN1C(=O)CNc2ncc(-c3cnc(-c4nc[nH]n4)cc3C)nc21` [Example 240, 1-(2-methoxyethyl)-7-(4-methyl-6-(1H-1,2,4-triazol-3-yl)pyridin-3-yl)-3,4-dihydropyrazino[2,3-b]pyrazin-2(1H)-one], the pIC50 is 6.60 to 11.30.

Regarding `Cc1cc(-c2nnc[nH]2)ccc1-c1cnc2c(n1)N(Cc1ccccc1)C(=O)CN2` [Example 241, 1-benzyl-7-(2-methyl-4-(4H-1,2,4-triazol-3-yl)phenyl)-3,4-dihydropyrazino[2,3-b]pyrazin-2(1H)-one], the pIC50 is 6.60 to 11.30.

Consider `COCCN1C(=O)CNc2ncc(-c3ccc(-c4nnc[nH]4)c(F)c3)nc21` [Example 242, 7-(3-fluoro-4-(4H-1,2,4-triazol-3-yl)phenyl)-1-(2-methoxyethyl)-3,4-dihydropyrazino[2,3-b]pyrazin-2(1H)-one], for which the pIC50 is 6.60 to 11.30.

As to `O=C1CNc2ncc(-c3ccc(-c4nnc[nH]4)c(F)c3)nc2N1CCC1CCOCC1` [Example 243, 7-(3-fluoro-4-(4H-1,2,4-triazol-3-yl)phenyl)-1-(2-(tetrahydro-2H-pyran-4-yl)ethyl)-3,4-dihydropyrazino[2,3-b]pyrazin-2(1H)-one], the pIC50 was 6.60 to 11.30.

Turning to `COCCN1C(=O)CNc2ncc(-c3ccc(-c4nc[nH]n4)c(F)c3C)nc21` [Example 244, 7-(3-fluoro-2-methyl-4-(1H-1,2,4-triazol-3-yl)phenyl)-1-(2-methoxyethyl)-3,4-dihydropyrazino[2,3-b]pyrazin-2(1H)-one], the pIC50 was 6.60 to 11.30.

As for `Cc1cc(-c2nnc[nH]2)c(F)cc1-c1cnc2c(n1)N(CCC1CCOCC1)C(=O)CN2` [Example 247, 7-(5-fluoro-2-methyl-4-(4H-1,2,4-triazol-3-yl)phenyl)-1-(2-(tetrahydro-2H-pyran-4-yl)ethyl)-3,4-dihydropyrazino[2,3-b]pyrazin-2(1H)-one], the pIC50 was 6.60 to 11.30.

For `Cc1c(-c2cnc3c(n2)N(CCC2CCOCC2)C(=O)CN3)ccc(-c2nc[nH]n2)c1F` [Example 248, 7-(3-fluoro-2-methyl-4-(1H-1,2,4-triazol-3-yl)phenyl)-1-(2-(tetrahydro-2H-pyran-4-yl)ethyl)-3,4-dihydropyrazino[2,3-b]pyrazin-2(1H)-one], the pIC50 is 6.60 to 11.30.

As for `CC(C)(O)c1ccc(-c2cnc3c(n2)N(CC2CCCC2)C(=O)CN3)cn1` [Example 251, 1-(cyclopentylmethyl)-7-(6-(2-hydroxypropan-2-yl)pyridin-3-yl)-3,4-dihydropyrazino[2,3-b]pyrazin-2(1H)-one], the pIC50 is 6.00 to 6.30.

Turning to `COCCN1C(=O)CNc2ncc(-c3ccc(C(C)(C)O)cc3)nc21` [Example 252, 7-(4-(2-hydroxypropan-2-yl)phenyl)-1-(2-methoxyethyl)-3,4-dihydropyrazino[2,3-b]pyrazin-2(1H)-one], the pIC50 is 5.00 to 6.00.

On to `C[C@H](O)c1ccc(-c2cnc3c(n2)N(CCC2CCOCC2)C(=O)CN3)cn1` [Example 253, (S)-7-(6-(1-hydroxyethyl)pyridin-3-yl)-1-(2-(tetrahydro-2H-pyran-4-yl)ethyl)-3,4-dihydropyrazino[2,3-b]pyrazin-2(1H)-one], for which the pIC50 is 6.60 to 11.30.

In the case of `C[C@@H](O)c1ccc(-c2cnc3c(n2)N(CCC2CCOCC2)C(=O)CN3)cn1` [Example 254, (R)-7-(6-(1-hydroxyethyl)pyridin-3-yl)-1-(2-(tetrahydro-2H-pyran-4-yl)ethyl)-3,4-dihydropyrazino[2,3-b]pyrazin-2(1H)-one], the pIC50 was 6.60 to 11.30.

Turning to `CC(C)(O)c1ccc(-c2cnc3c(n2)N(Cc2ccc(C(F)(F)F)cc2)C(=O)CN3)cn1` [Example 257, 7-(6-(2-hydroxypropan-2-yl)pyridin-3-yl)-1-(4-(trifluoromethyl)benzyl)-3,4-dihydropyrazino[2,3-b]pyrazin-2(1H)-one], the pIC50 is 6.60 to 11.30.

As to `CC(C)(O)c1ccc(-c2cnc3c(n2)N(Cc2cccc(C(F)(F)F)c2)C(=O)CN3)cn1` [Example 258, 7-(6-(2-hydroxypropan-2-yl)pyridin-3-yl)-1-(3-(trifluoromethyl)benzyl)-3,4-dihydropyrazino[2,3-b]pyrazin-2(1H)-one], the pIC50 was 6.60 to 11.30.
